From patent US20100119599A1 (ARCHER PHARMACEUTICALS, INC., priority 2006, published 2010)

Experiments:
Aβ1-40 = assay: Measurement of Aβ1-40 in culture medium of 7W WT APP751 CHO cells by ELISA; type: cell-based, Chinese hamster; conditions: for Aβ1-40 (% of control): CHO cells that overexpress APP751, zero = below the detection limit of the assay; for activity at 5 µM: Cricetulus griseus, Table 1, 5 μM test compound, CHO cells stably transfected with human APP751, culture medium, ELISA, control DMSO, 0 = no detectable amount
Aβ1-42 = assay: Measurement of Aβ1-42 in culture medium of 7W WT APP751 CHO cells by ELISA; type: cell-based, Chinese hamster; conditions: for Aβ1-42 (% of control): CHO cells that overexpress APP751, zero = below the detection limit of the assay; for activity at 5 µM: Cricetulus griseus, Table 1, 5 μM test compound, CHO cells stably transfected with human APP751, culture medium, ELISA, control DMSO, 0 = no detectable amount, read-out: Aβ1-42 (% of control)
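Also: 5 µM test compound but RI-coded compounds at 10 µM for 24 hours.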

| Structure (SMILES) | Aβ1-40 (% of control) (Aβ1-40) | Aβ1-42 (% of control) (Aβ1-42) | activity at 5 µM (Aβ1-40) | activity at 5 µM (Aβ1-42) |
| --- | --- | --- | --- | --- |
| CCOc1ccc(NC(=O)CSC2=C(C#N)C(c3ccco3)C(C(=O)Nc3ccccc3C)=C(C)N2)cc1 (stereo not drawn) [ST051158, 2-{3-cyano-4-(2-furyl)-6-methyl-5-[N-(2-methylphenyl)carbamoyl](2-1,4-dihydropyridylthio)}-N-(4-ethoxyphenyl)acetamide] | 17.68 % of control | 15.87 % of control | – | – |
| Cc1c(Cl)cccc1NC(=O)CSC1=C(C#N)C(c2cccs2)C2=C(CC(C)(C)CC2=O)N1 (stereo not drawn) [ST051161, N-(3-chloro-2-methylphenyl)-2-(3-cyano-7,7-dimethyl-5-oxo-4-(2-thienyl)(2-1,4,6,7,8-pentahydroquinolylthio))acetamide] | – | – | 13% | 25.4% |
| COC(=O)C1=CN(C2CC2)C=C(C(=O)OC)C1c1cc2c(cc1Cl)OCO2 [ST051458, methyl 4-(6-chloro(2H-benzo[d]1,3-dioxolan-5-yl))-1-cyclopropyl-5-(methoxycarbonyl)-1,4-dihydropyridine-3-carboxylate] | 77.81 % of control | 59.9 % of control | – | – |
| COC(=O)C1=CN(CC2CCCO2)C=C(C(=O)OC)C1c1cccc(OC)c1OC (stereo not drawn) [ST051459, methyl 4-(2,3-dimethoxyphenyl)-5-(methoxycarbonyl)-1-(oxolan-2-ylmethyl)-1,4-dihydropyridine-3-carboxylate] | 70.09 % of control | 85.96 % of control | – | – |
| COc1cc(OC)c(C2C(C(=O)OC3CCCC3)=C(C)NC3=C2C(=O)CC(c2cccs2)C3)cc1OC (stereo not drawn) [ST051557, cyclopentyl 2-methyl-5-oxo-7-(2-thienyl)-4-(2,4,5-trimethoxyphenyl)-1,4,6,7,8-pentahydroquinoline-3-carboxylate] | – | – | 57.3% | 93.1% |
| CC1=C(C(=O)OCC(C)C)C(c2ccccc2F)C2=C(CC(c3cccs3)CC2=O)N1 (stereo not drawn) [ST051566, 2-methylpropyl 4-(2-fluorophenyl)-2-methyl-5-oxo-7-(2-thienyl)-1,4,6,7,8-pentahydroquinoline-3-carboxylate] | – | – | 63.4% | 96.1% |
| CC1=C(C(=O)OC2CCCC2)C(c2ccc(C)o2)C2=C(CC(c3cccs3)CC2=O)N1 (stereo not drawn) [ST051567, cyclopentyl 2-methyl-4-(5-methyl(2-furyl))-5-oxo-7-(2-thienyl)-1,4,6,7,8-pentahydroquinoline-3-carboxylate] | – | – | 60.4% | 85% |
| COC(=O)C1=CN(CC2CCCO2)C=C(C(=O)OC)C1c1cccc(Br)c1 (stereo not drawn) [ST051569, methyl 4-(3-bromophenyl)-5-(methoxycarbonyl)-1-(oxolan-2-ylmethyl)-1,4-dihydropyridine-3-carboxylate] | 49.02 % of control | 72.77 % of control | – | – |
| CCSCCOC(=O)C1=C(C)NC2=C(C(=O)CC(c3cccs3)C2)C1c1cccc(Cl)c1 (stereo not drawn) [ST051570, 2-ethylthioethyl 4-(3-chlorophenyl)-2-methyl-5-oxo-7-(2-thienyl)-1,4,6,7,8-pentahydroquinoline-3-carboxylate] | – | – | 31.7% | 93.8% |
| COc1ccc(C2C(C(=O)OC3CCCC3)=C(C)NC3=C2C(=O)CC(c2cccs2)C3)c(OC)c1OC (stereo not drawn) [ST051571, cyclopentyl 2-methyl-5-oxo-7-(2-thienyl)-4-(2,3,4-trimethoxyphenyl)-1,4,6,7,8-pentahydroquinoline-3-carboxylate] | – | – | 40.4% | 62.1% |
| CC1=C(C(=O)OCC2CCCO2)C(c2cccc(Cl)c2)C2=C(CC(c3cccs3)CC2=O)N1 (stereo not drawn) [ST051818, oxolan-2-ylmethyl 4-(3-chlorophenyl)-2-methyl-5-oxo-7-(2-thienyl)-1,4,6,7,8-pentahydroquinoline-3-carboxylate] | – | – | 37% | 72.9% |
| COc1ccc(C2C(C#N)=C(N)N(c3ccccc3Cl)C3=C2C(=O)CCC3)cc1O (stereo not drawn) [ST051958, 2-amino-1-(2-chlorophenyl)-4-(3-hydroxy-4-methoxyphenyl)-5-oxo-1,4,6,7,8-pentahydroquinoline-3-carbonitrile] | – | – | 56.6% | 80.2% |
| N#CC1=C(N)N(c2c(F)cccc2F)C2=C(C(=O)CCC2)C1c1ccsc1 (stereo not drawn) [ST051960, 2-amino-1-(2,6-difluorophenyl)-5-oxo-4-(3-thienyl)-1,4,6,7,8-pentahydroquinoline-3-carbonitrile] | – | – | 48.8% | 86.3% |
| CC1(C)CC(=O)C2=C(C1)N(c1ccc(Br)cc1)C(N)=C(C#N)C2c1ccc(C(C)(C)C)s1 (stereo not drawn) [ST052026, 2-amino-4-[5-(tert-butyl)(2-thienyl)]-1-(4-bromophenyl)-7,7-dimethyl-5-oxo-1,4,6,7,8-pentahydroquinoline-3-carbonitrile] | – | – | 13.5% | 25.3% |
| CC1(C)CC(=O)C2=C(C1)N(c1ccc(Br)cc1F)C(N)=C(C#N)C2c1ccc(Cl)cc1Cl (stereo not drawn) [ST052048, 2-amino-4-(2,4-dichlorophenyl)-1-(4-bromo-2-fluorophenyl)-7,7-dimethyl-5-oxo-1,4,6,7,8-pentahydroquinoline-3-carbonitrile] | – | – | 58.9% | 33% |
| CCn1c2ccccc2c2cc(C3C(C(=O)OC4CCCC4)=C(C)NC4=C3C(=O)CC(C)(C)C4)ccc21 (stereo not drawn) [ST052173, cyclopentyl 4-(9-ethylcarbazol-3-yl)-2,7,7-trimethyl-5-oxo-1,4,6,7,8-pentahydroquinoline-3-carboxylate] | – | – | 64.7% | 32.5% |
| CCn1c2ccccc2c2cc(C3C(C(=O)OCC4CCCO4)=C(C)NC4=C3C(=O)CCC4)ccc21 (stereo not drawn) [ST052207, oxolan-2-ylmethyl 4-(9-ethylcarbazol-3-yl)-2-methyl-5-oxo-1,4,6,7,8-pentahydroquinoline-3-carboxylate] | – | – | 52.3% | 59.6% |
| CC1=C(C(=O)OCCOc2ccccc2)C(c2ccccc2Br)C2=C(CCCC2=O)N1 (stereo not drawn) [ST052219, 2-phenoxyethyl 4-(2-bromophenyl)-2-methyl-5-oxo-1,4,6,7,8-pentahydroquinoline-3-carboxylate] | – | – | 14% | 24.7% |
| CC1=C(C(=O)OCCc2ccccc2)C(c2cccc(Br)c2)C2=C(CCCC2=O)N1 (stereo not drawn) [ST052221, 2-phenylethyl 4-(3-bromophenyl)-2-methyl-5-oxo-1,4,6,7,8-pentahydroquinoline-3-carboxylate] | – | – | 62.4% | 46.1% |
| COc1ccc(Br)cc1C1C(C(=O)OCC2CCCO2)=C(C)NC2=C1C(=O)CCC2 (stereo not drawn) [ST052224, oxolan-2-ylmethyl 4-(5-bromo-2-methoxyphenyl)-2-methyl-5-oxo-1,4,6,7,8-pentahydroquinoline-3-carboxylate] | – | – | 76.9% | 68.1% |
| CC1=C(C(=O)OCCc2ccccc2)C(c2ccccc2F)C2=C(CC(C)(C)CC2=O)N1 (stereo not drawn) [ST052225, 2-phenylethyl 4-(2-fluorophenyl)-2,7,7-trimethyl-5-oxo-1,4,6,7,8-pentahydroquinoline-3-carboxylate] | – | – | 37.7% | 29.7% |
| CC1=C(C(=O)OCCc2ccccc2)C(c2ccccc2C(F)(F)F)C2=C(CCCC2=O)N1 (stereo not drawn) [ST052228, 2-phenylethyl 2-methyl-5-oxo-4-[2-(trifluoromethyl)phenyl]-1,4,6,7,8-pentahydroquinoline-3-carboxylate] | – | – | 60.4% | 36.9% |
| CC1=C(C(=O)OCCc2ccccc2)C(c2ccc(N(C)C)cc2)C2=C(CC(C)(C)CC2=O)N1 (stereo not drawn) [ST052231, 2-phenylethyl 4-[4-(dimethylamino)phenyl]-2,7,7-trimethyl-5-oxo-1,4,6,7,8-pentahydroquinoline-3-carboxylate] | – | – | 38.8% | 63.5% |
| CC1=C(C(=O)OCCOc2ccccc2)C(c2ccc(C(C)C)cc2)C2=C(CCCC2=O)N1 (stereo not drawn) [ST052247, 2-phenoxyethyl 2-methyl-4-[4-(methylethyl)phenyl]-5-oxo-1,4,6,7,8-pentahydroquinoline-3-carboxylate] | – | – | 98% | 64.1% |
| COC(=O)C1=CNC=C(C(=O)OC)C1c1cccc(OC)c1 [ST052261, methyl 5-(methoxycarbonyl)-4-(3-methoxyphenyl)-1,4-dihydropyridine-3-carboxylate] | 38.04 % of control | 57.24 % of control | – | – |
| CC1=C(C(=O)OC2CCCC2)C(c2ccc(C)s2)C2=C(CCCC2=O)N1 (stereo not drawn) [ST052262, cyclopentyl 2-methyl-4-(5-methyl(2-thienyl))-5-oxo-1,4,6,7,8-pentahydroquinoline-3-carboxylate] | – | – | 13.2% | 19.7% |
| CC1=C(C(=O)OC2CCCC2)C(c2ccc(F)c(F)c2)C2=C(CCCC2=O)N1 (stereo not drawn) [ST052267, cyclopentyl 4-(3,4-difluorophenyl)-2-methyl-5-oxo-1,4,6,7,8-pentahydroquinoline-3-carboxylate] | – | – | 50.7% | 52.8% |
| COc1ccc(COC(=O)C2=C(C)NC3=C(C(=O)CCC3)C2c2ccccc2C(F)(F)F)cc1 (stereo not drawn) [ST052271, (4-methoxyphenyl)methyl 2-methyl-5-oxo-4-[2-(trifluoromethyl)phenyl]-1,4,6,7,8-pentahydroquinoline-3-carboxylate] | – | – | 25.8% | 23.9% |
| CC1=C(C(=O)OCCOC(C)C)C(c2ccc([N+](=O)[O-])cc2)C2=C(CC(C)(C)CC2=O)N1 (stereo not drawn) [ST052272, 2-(methylethoxy)ethyl 2,7,7-trimethyl-4-(4-nitrophenyl)-5-oxo-1,4,6,7,8-pentahydroquinoline-3-carboxylate] | – | – | 65.8% | 29.2% |
| COC(=O)C1=CNC=C(C(=O)OC)C1c1cccc(OCc2ccccc2)c1 [ST052273, methyl 5-(methoxycarbonyl)-4-[3-(phenylmethoxy)phenyl]-1,4-dihydropyridine-3-carboxylate] | 84.66 % of control | 57.92 % of control | – | – |
